Measured values published in US20240041042A1, “1-(PYRIDYL)-5-AZINYLPYRAZOLE DERIVATIVES, AND THEIR USE FOR CONTROL OF UNDESIRED PLANT GROWTH” (Bayer Aktiengesellschaft, priority 2020, published 2024).

Tests used:
Assay type in all cases: in vivo
Viola tricolor (VIOTR) [1] = test: Post-emergence herbicidal action against VIOTR
Procedure, shortened: (§1)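 Greenhouse plants sprayed at the one-leaf stage, 2–3 weeks after sowing, with WP or EC formulations plus 0.5% additive at 600 l/ha water. Activity rated visually after about 3 weeks versus untreated controls (100% = dead, 0% = like control), at 320 g/ha or lower.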

[2] = system: Pharbitis purpurea (PHBPU); test: Post-emergence herbicidal action against PHBPU
Procedure, shortened: as §1

[3] = system: Digitaria sanguinalis (DIGSA); test: Pre-emergence herbicidal action against DIGSA
Procedure, shortened: (§2)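 Seeds sown in pots and covered with soil; WP or EC formulations sprayed onto the soil surface at 600 l/ha water with 0.5% additive, at 320 g/ha or lower. Greenhouse growth for about 3 weeks, then visual scoring as % effect against untreated controls (100% = plants dead).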

[4] = system: Amaranthus retroflexus (AMARE); test: Post-emergence herbicidal action against AMARE
Procedure, shortened: as §1

[5] = system: Verconica persica (VERPE); test: Pre-emergence herbicidal action against VERPE
Procedure, shortened: as §2

Lolium rigidum (LOLRI) [6] = test: Post-emergence herbicidal action against LOLRI
Procedure, shortened: as §1

Avena fatua (AVEFA) [7] = test: Post-emergence herbicidal action against AVEFA; conditions: 320 g/ha, visual rating about 3 weeks after treatment
Procedure, shortened: as §1

Oryza sativa (ORYSA) = conditions: crop plant compatibility, 80 g/ha, effect in comparison to untreated controls
Procedure, shortened: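 Greenhouse crops in sandy loam sprayed post-emergence at the one-leaf stage, 2–3 weeks after sowing, with WP or EC formulations in water plus 0.5% additive at 600 l/ha. Damage rated visually about 3 weeks later versus untreated controls (0% = like control, 100% = dead); suffixes a–c denote different doses.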

[8] = system: Matricaria inodora (MATIN); test: Pre-emergence herbicidal action against MATIN
Procedure, shortened: as §2

[9] = system: Digitaria sanguinalis (DIGSA); test: Post-emergence herbicidal action against DIGSA; conditions: 320 g/ha, visual rating about 3 weeks after treatment
Procedure, shortened: as §1

[10] = system: Echinochloa crus-galli (ECHCG); test: Post-emergence herbicidal action against ECHCG
Procedure, shortened: as §1

Setaria viridis (SETVI) [11] = test: Post-emergence herbicidal action against SETVI
Procedure, shortened: as §1

[12] = system: Alopecurus myosuroides (ALOMY); test: Pre-emergence herbicidal action against ALOMY; conditions: scored visually after about 3 weeks, 100% = plants have died
Procedure, shortened: as §2

[13] = system: Alopecurus myosuroides (ALOMY); test: Post-emergence herbicidal action against ALOMY; conditions: visual rating about 3 weeks after treatment vs untreated controls (100% = plants have died, 0% = like control plants)
Procedure, shortened: as §1

[14] = system: Echinochloa crus-galli (ECHCG); test: Pre-emergence herbicidal action against ECHCG
Procedure, shortened: as §2

Setaria viridis (SETVI) [15] = test: Pre-emergence herbicidal action against SETVI
Procedure, shortened: as §2

[16] = system: Abutilon theophrasti (ABUTH); test: Pre-emergence herbicidal action against ABUTH; conditions: Dosage column 320 g/ha (title prints 3200 g/ha); scored visually after about 3 weeks; 100% = plants have died
Procedure, shortened: as §2

Viola tricolor (VIOTR) [17] = test: Pre-emergence herbicidal action against VIOTR
Procedure, shortened: as §2

[18] = system: Amaranthus retroflexus (AMARE); test: Pre-emergence herbicidal action against AMARE; conditions: visual scoring after about 3 weeks vs untreated controls
Procedure, shortened: as §2

[19] = system: Polygonum convolvulus (POLCO); test: Pre-emergence herbicidal action against POLCO
Procedure, shortened: as §2

[20] = system: Pharbitis purpurea (PHBPU); test: Pre-emergence herbicidal action against PHBPU
Procedure, shortened: as §2

Lolium rigidum (LOLRI) [21] = test: Pre-emergence herbicidal action against LOLRI
Procedure, shortened: as §2

[22] = system: Verconica persica (VERPE); test: Post-emergence herbicidal action against VERPE
Procedure, shortened: as §1

Avena fatua (AVEFA) [23] = test: Pre-emergence herbicidal action against AVEFA; conditions: 320 g/ha, visual scoring after about 3 weeks vs untreated controls
Procedure, shortened: as §2

[24] = system: Matricaria inodora (MATIN); test: Post-emergence herbicidal action against MATIN; conditions: dosage 320 g/ha
Procedure, shortened: as §1

[25] = system: Polygonum convolvulus (POLCO); test: Post-emergence herbicidal action against POLCO
Procedure, shortened: as §1

[26] = system: Abutilon theophrasti (ABUTH); test: Post-emergence herbicidal action against ABUTH; conditions: visual rating about 3 weeks after treatment vs untreated controls (100% = plants have died, 0% = like control plants)
Procedure, shortened: as §1

Zea mays (ZEAMX) = conditions: pre-emergence, 80 g/ha, crop plant compatibility, in comparison to untreated controls
Procedure, shortened: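 Crop injury rated visually in percent against untreated plants roughly 3 weeks after treatment (0% no effect, 100% plants dead). Compounds, as WP or EC with 0.5% additive in 600 l/ha water, were applied to the covering soil right after sowing; greenhouse growth. Suffixes a, b, c denote different dosages.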

[27] = 80 g/ha, visual rating about 3 weeks after treatment vs untreated controls (100% = plants have died, 0% = like control plants)
[28] = 320 g/ha, visual rating about 3 weeks after treatment

Structure (SMILES)	Post-emergence action against PHBPU in % ([2]; dosage 80 g/ha)	Post-emergence action against PHBPU in % ([2]; dosage 320 g/ha)	Post-emergence action against AMARE in % [4, 27]	Post-emergence action against AMARE in % [4, 28]	Pre-emergence action against VERPE in % ([5]; dosage 320 g/ha)	Post-emergence action against LOLRI in % (Lolium rigidum (LOLRI) [6]; dosage 320 g/ha)	Post-emergence action against AVEFA in % (Avena fatua (AVEFA) [7])	Post-emergence action against ORYSA in % (Oryza sativa (ORYSA))	Pre-emergence action against MATIN in % ([8]; dosage 320 g/ha)	Post-emergence action against ECHCG in % ([10]; dosage 80 g/ha)	Post-emergence action against ECHCG in % ([10]; dosage 320 g/ha)	Post-emergence action against SETVI in % (Setaria viridis (SETVI) [11]; dosage 320 g/ha)	Pre-emergence action against ALOMY ([12]; 320 g/ha)	Post-emergence action against ALOMY in % ([13]; 80 g/ha)	Post-emergence action against ALOMY in % ([13]; 320 g/ha)	Pre-emergence action against ECHCG in % ([14]; dosage 80 g/ha)	Pre-emergence action against ECHCG in % ([14]; dosage 320 g/ha)	Pre-emergence action against SETVI in % (Setaria viridis (SETVI) [15]; dosage 320 g/ha)	Pre-emergence action against ABUTH [16]	Pre-emergence action against VIOTR in % (Viola tricolor (VIOTR) [17]; 320 g/ha, Viola tricolor)	also measured
COC(=O)C(C)COC(=O)COc1nn(-c2ccccn2)c(-c2cncc(F)c2)c1Cl (stereo not drawn) [Example I-221]	90%	100%	80%	90%	90%	90%	80%	20%	90%	80%	80%	90%	90%	80%	80%	90%	100%	100%	80%	90%	Post-emergence action against VIOTR in % (Viola tricolor (VIOTR) [1]; 80 g/ha): 80%; Post-emergence action against VIOTR in % (Viola tricolor (VIOTR) [1]; 320 g/ha): 80%; Pre-emergence action against DIGSA in % ([3]; 80 g/ha, visual scoring after about 3 weeks vs untreated controls): 90%; Pre-emergence action against DIGSA in % ([3]; dosage 320 g/ha): 100%; Post-emergence action against LOLRI in % (Lolium rigidum (LOLRI) [6]; dosage 80 g/ha): 80%; Pre-emergence action against MATIN in % ([8]; dosage 80 g/ha): 90%; Post-emergence action against DIGSA in % [9]: 80%; Post-emergence action against SETVI in % (Setaria viridis (SETVI) [11]; dosage 80 g/ha): 90%; Pre-emergence action against SETVI in % (Setaria viridis (SETVI) [15]; dosage 80 g/ha): 90%; Pre-emergence action against VIOTR in % (Viola tricolor (VIOTR) [17]; dosage 80 g/ha): 90%; Pre-emergence action against AMARE in % ([18]; 80 g/ha): 80%; Pre-emergence action against AMARE in % ([18]; 320 g/ha): 90%; Pre-emergence action against POLCO in % ([19]; dosage 80 g/ha): 80%; Pre-emergence action against POLCO in % ([19]; dosage 320 g/ha): 90%; Pre-emergence action against PHBPU in % ([20]; dosage 80 g/ha): 90%; Pre-emergence action against PHBPU in % ([20]; dosage 320 g/ha): 90%; Pre-emergence action against LOLRI in % (Lolium rigidum (LOLRI) [21]; dosage 80 g/ha): 80%; Pre-emergence action against LOLRI in % (Lolium rigidum (LOLRI) [21]; dosage 320 g/ha): 100%
COC(=O)CCOC(=O)COc1nn(-c2ccccn2)c(-c2ccc(F)nc2)c1Cl [Example I-88]	80%	80%	80%	80%	90%	80%	90%	0%	90%	80%	90%	80%	100%	80%	90%	90%	100%	100%	80%	90%	Post-emergence action against VERPE in % ([22]; 320 g/ha, VERPE): 80%; Post-emergence action against VERPE in % ([22]; dosage 80 g/ha): 80%; Pre-emergence action against VERPE in % ([5]; dosage 80 g/ha): 80%; Pre-emergence action against ALOMY ([12]; 80 g/ha): 80%; Pre-emergence action against AVEFA in % (Avena fatua (AVEFA) [23]): 90%; Post-emergence action against MATIN in % [24]: 80%; Post-emergence action against POLCO in % ([25]; dosage 80 g/ha): 80%; Post-emergence action against POLCO in % ([25]; dosage 320 g/ha): 80%; Pre-emergence action against AMARE in % ([18]; 80 g/ha): 80%; Pre-emergence action against AMARE in % ([18]; 320 g/ha): 100%; Pre-emergence action against POLCO in % ([19]; dosage 80 g/ha): 80%; Pre-emergence action against POLCO in % ([19]; dosage 320 g/ha): 90%; Post-emergence action against ABUTH in % ([26]; 80 g/ha): 80%; Post-emergence action against ABUTH in % ([26]; 320 g/ha): 80%; Pre-emergence action against PHBPU in % ([20]; dosage 320 g/ha): 80%; Pre-emergence action against LOLRI in % (Lolium rigidum (LOLRI) [21]; dosage 320 g/ha): 100%; Pre-emergence action against ZEAMX in % (Zea mays (ZEAMX)): 20%
